Test results as given in US20110306580A1 (DONG WHA PHARMACEUTICAL CO ., LTD., priority 2009, published 2011).

Tested on: ROS17/2.8 cells
Assay: Cell growth of ROS17/2.8 cells by the MTT method (formed formazan)
Assay type: cell-based, rat
Details: for activity at 0.02 µM: Rattus norvegicus, 2×10^−5M Test Compound solution diluted 1000 fold, read-out: Amount of formed formazan, Solution 8 (Test Compound alone); for activity at 0.02 µM / Amount of formed formazan, Solution 10 (a group of a drug combination): percentage to Solution 7 addition group, about 48 hours, average ± standard deviation of four wells; for Relative index of Solution 10 (a group of a drug combination) / Amount of formed formazan, Solution 10 (a group of a drug combination): Test Compound in combination with 1α,25-dihydroxyvitamin D3; for Relative index of Solution 10 (a group of a drug combination) / Relative index of Solution 8 (Test Compound alone): amount of formed formazan, Solution 7 = 1.00
Experimental: 100 μL of a 10% FCS-αMEM comprising either DMSO and ethanol (referred to as Solution 7, hereinafter), a Test Compound solution and ethanol (referred to as Solution 8, hereinafter), a 1α,25-dihydroxyvitamin D3 solution and DMSO (referred to as Solution 9, hereinafter) or a Test Compound solution and the 1α,25-dihydroxyvitamin D3 solution (referred to as Solution 10, hereinafter) was dispensed. The ROS17/2.8 cells were inoculated to a medium at a density of 5×10^3 cells/100 μL/well. After culture of the cells for about 48 hours, the effect of Test Compound and 1α,25-dihydroxyvitamin D3 on the cell growth of the ROS17/2.8 cells was evaluated using the MTT method. Namely, after culture of the cells for about 44 hours, an MTT solution (3-[4,5-dimethylthiazol-2-yl]-2,5-diphenyltetrazolium bromide 2 mg/mL) was added in an amount of 25 μL/well, and the cells were further cultured for four hours. After the medium was removed, DMSO was added in an amount of 100 μL/well so as to dissolve the formed formazan. The amount of the formed formazan was determined by measuring the absorbance (at 560 nm) of the solution by a microplate reader.
The 10% FCS-αMEM comprising Solution 7 was prepared by diluting DMSO by 1000 fold with the 10% FCS-αMEM, and diluting ethanol by 10000 fold with the 10% FCS-αMEM. The 10% FCS-αMEM comprising Solution 8 was prepared by diluting a 2×10^−5M Test Compound solution by 1000 fold with the 10% FCS-αMEM, and diluting ethanol by 10000 fold with the 10% FCS-αMEM. The 10% FCS-αMEM comprising Solution 9 was prepared by diluting 2×10^−3M 1α,25-dihydroxyvitamin D3 solution by 10000 fold with the 10% FCS-αMEM, and diluting DMSO by 1000 fold with the 10% FCS-αMEM. The 10% FCS-αMEM comprising Solution 10 was prepared by diluting a 2×10^−5M Test Compound solution by 1000 fold with the 10% FCS-αMEM, and diluting 2×10^−3M 1α,25-dihydroxyvitamin D3 solution by 10000 fold with the 10% FCS-αMEM.
The amount of the formed formazan in each solution addition group was obtained in terms of a percentage to the average value of the amounts of formed formazan in four wells in a Solution 7 addition group. All the determined values were shown in terms of the average value±standard deviation of the four wells of each solution addition group.

CCc1sc(C2CCCCC2)nc1-c1ccc(OCCCCOc2ccc(/C(N)=N/O)cc2)cc1 [Compound 21, N-hydroxy-4-{4-[4-(2-cyclohexyl-5-ethyl-1,3-thiazol-4-yl)phenoxy]butoxy}benzamidine]
activity at 0.02 µM: 105 ± 2.5%
Relative index of Solution 10 (a group of a drug combination): 1.11
Amount of formed formazan, Solution 10 (a group of a drug combination): 111 ± 1.7 # %
Relative index of Solution 8 (Test Compound alone): 1.05

Cc1nc(-c2ccc(OCc3cccc(COc4ccc(/C(N)=N/O)cc4)c3)cc2)c(C(C)C)s1 [Compound 22, N-hydroxy-4-{3-[4-(5-isopropyl-2-methyl-1,3-thiazol-4-yl)phenoxymethyl]benzyloxy}benzamidine]
activity at 0.02 µM: 110 ± 4.1%
Relative index of Solution 10 (a group of a drug combination): 1.22
Amount of formed formazan, Solution 10 (a group of a drug combination): 122 ± 2.1 ## %
Relative index of Solution 8 (Test Compound alone): 1.10

Cc1nc(-c2ccc(OCCCCCOc3ccc(/C(N)=N/O)cc3)cc2)c(CCn2ccnc2)s1 [Compound 23, N-hydroxy-4-{5-[4-(5-(2-(imidazol-1-yl)ethyl)-2-methyl-1,3-thiazol-4-yl)phenoxy]pentoxy}benzamidine]
activity at 0.02 µM: 107 ± 5.5%
Relative index of Solution 10 (a group of a drug combination): 1.23
Amount of formed formazan, Solution 10 (a group of a drug combination): 123 ± 10.2 # %
Relative index of Solution 8 (Test Compound alone): 1.07

Cc1nc(-c2ccc(OCCCCCOc3ccc(/C(N)=N/O)cc3)cc2)c(CCNC(C)C)s1 [Compound 24, N-hydroxy-4-{5-[4-(5-(2-(isopropylamino)ethyl)-2-methyl-1,3-thiazol-4-yl)phenoxy]pentoxy}benzamidine]
activity at 0.02 µM: 110 ± 4.4%
Relative index of Solution 10 (a group of a drug combination): 1.18
Amount of formed formazan, Solution 10 (a group of a drug combination): 118 ± 2.9 ## %
Relative index of Solution 8 (Test Compound alone): 1.10

Cc1nc(-c2ccc(OCCCCCOc3ccc(/C(N)=N/O)cc3)cc2)c(CCNCCCOC(C)C)s1 [Compound 25, N-hydroxy-4-{5-[4-(5-(2-(3-(isopropoxy)propylamino)ethyl)-2-methyl-1,3-thiazol-4-yl)phenoxy]pentoxy}benzamidine]
activity at 0.02 µM: 101 ± 3.2%
Relative index of Solution 10 (a group of a drug combination): 1.12
Amount of formed formazan, Solution 10 (a group of a drug combination): 112 ± 1.5 # %
Relative index of Solution 8 (Test Compound alone): 1.01

CCN(CC)CCc1sc(C)nc1-c1ccc(OCCCCCOc2ccc(/C(N)=N/O)cc2)cc1 [Compound 26, N-hydroxy-4-{5-[4-(5-(2-diethylaminoethyl)-2-methyl-1,3-thiazol-4-yl)phenoxy]pentoxy}benzamidine]
activity at 0.02 µM: 102 ± 2.6%
Relative index of Solution 10 (a group of a drug combination): 1.13
Amount of formed formazan, Solution 10 (a group of a drug combination): 113 ± 2.7 # %
Relative index of Solution 8 (Test Compound alone): 1.02

CC(C)c1nc(-c2ccc(OCCCCCOc3ccc(/C(N)=N/O)cc3)cc2)c(CCN2CCSCC2)s1 [Compound 27, N-hydroxy-4-{5-[4-(2-isopropyl-5-(2-(thiomorpholin-4-yl)ethyl)-1,3-thiazol-4-yl)phenoxy]pentoxy}benzamidine]
activity at 0.02 µM: 98 ± 1.9%
Relative index of Solution 10 (a group of a drug combination): 1.12
Amount of formed formazan, Solution 10 (a group of a drug combination): 112 ± 0.9 ## %
Relative index of Solution 8 (Test Compound alone): 0.98

CN(C)CCc1sc(C2CCCCC2)nc1-c1ccc(OCCCCCOc2ccc(/C(N)=N/O)cc2)cc1 [Compound 28, N-hydroxy-4-{5-[4-(2-cyclohexyl-5-(2-(dimethylamino)ethyl)-1,3-thiazol-4-yl)phenoxy]pentoxy}benzamidine]
activity at 0.02 µM: 99 ± 3.5%
Relative index of Solution 10 (a group of a drug combination): 1.11
Amount of formed formazan, Solution 10 (a group of a drug combination): 111 ± 2.0 # %
Relative index of Solution 8 (Test Compound alone): 0.99

CN(C)c1nc(-c2ccc(OCCCCCOc3ccc(/C(N)=N/O)cc3)cc2)c(CCN2CCOCC2)s1 [Compound 29, N-hydroxy-4-{5-[4-(2-dimethylamino-5-(2-(morpholin-4-yl)ethyl)-1,3-thiazol-4-yl)phenoxy]pentoxy}benzamidine]
activity at 0.02 µM: 102 ± 5.6%
Relative index of Solution 10 (a group of a drug combination): 1.14
Amount of formed formazan, Solution 10 (a group of a drug combination): 114 ± 2.6 ## %
Relative index of Solution 8 (Test Compound alone): 1.02
